We go through 9 compounds from article PMC12521615, “Accurate affinity models for SH2 domains from peptide binding assays and free‐energy regression” (Protein Science : A Publication of the Protein Society, 2025).

Non-standard residues stand in square brackets, D forms with d. Residues, ends and D or L forms follow the SMILES beside them. pY = N[C@@H](Cc1ccc(OP(=O)(O)O)cc1)C(=O)O

T1 sequence (P06241 142-248): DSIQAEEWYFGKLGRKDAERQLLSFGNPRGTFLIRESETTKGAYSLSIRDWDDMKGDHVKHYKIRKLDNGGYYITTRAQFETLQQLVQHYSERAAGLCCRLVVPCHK

One assay has as its target T1, Fyn SH2 domain (Homo sapiens, UniProt P06241).
T1 construct: The human SH2 domains from Fyn (142–248), Lyn (121–228); His6-SUMO (N, cleaved yes); host or cells: Escherichia coli C43(DE3) with BirA helper plasmid
As to the kind of experiment: biochemical. The format is binding.
Details: not given
The text has this: The human SH2 domains from Fyn (142–248), Lyn (121–228), Blk (116–222), and Yes (150–257) kinases were PCR‐amplified from plasmids encoding the full‐length proteins and cloned using the NEBuilder® HiFi DNA Assembly Master Mix (NEB) in a pET plasmid backbone that was PCR‐amplified with the primers pETXbaI_for and pETXhoI_rev (these and all other primers are defined in Table S7) from the pET‐His6‐SUMO‐Grb2(SH2), as reported before (Li et al., [2023]), thus adding an N‐terminal His6‐SUMO tag and a C‐terminal AviTag® for biotinylation. The SH2 plasmids are available via Addgene: pET28‐His6‐SUMO‐Fyn‐SH2‐AviTag (214202), pET28‐His6‐SUMO‐Blk‐SH2‐AviTag (214204), pET28‐His6‐SUMO‐Lyn‐SH2‐AviTag (214207), pET28‐His6‐SUMO‐Yes‐SH2‐AviTag (214208), and pET28‐His6‐SUMO‐cSrc‐SH2‐AviTag (214230). For expression and parallel biotinylating of the SH2 domain product, Escherichia coli C43(DE3) cells carrying a BirA encoding helper plasmid were transformed with the respective SH2 domain expression construct and plated to grow overnight at 37°C on a streptomycin and kanamycin (100 μg/mL both) LB‐agar plate. The colonies were collected in 10 mL of TB medium and used to inoculate 1 L of TB medium and grown at 37°C and 215 rpm. Upon reaching an OD600 of 0.5, the expression of the SH2 domains was induced by adding IPTG up to 0.5 mM and biotin up to 250 μM, and the expressing culture was incubated at 18°C for 16–18 h. After removing the medium through centrifugation, the cell pellets were snap‐frozen in liquid N2 and stored at −80°C until purification. To purify the biotinylated SH2 domains, the cell pellets were resuspended in lysis buffer (50 mM Tris, pH 7.5, 300 mM NaCl, 20 mM imidazole, 10% glycerol), supplementing them with 2 mM β‐mercaptoethanol and 1× protease inhibitor cocktail before lysis by sonication (Fisherbrand Sonic Dismembrator). The soluble fraction separated after centrifugation at 33,000 g was run on a HisTrap HP column (Cytiva), then washed with 10 CV of the lysis buffer followed by 10 CV of wash buffer (50 mM Tris, pH 7.5, 50 mM NaCl, 10 mM imidazole, 10% glycerol). Next, the protein was eluted with elution buffer (50 mM Tris, pH 7.5, 50 mM NaCl, 250 mM imidazole, 10% glycerol) directly onto a 5 mL HiTrap Q HP anion exchange column (Cytiva). The biotinylated SH2 domain was then eluted from the anion exchange column with an NaCl gradient (50 mM Tris, pH 7.5, 0.05–1 M NaCl, 1 mM TCEP‐HCl), and the His6‐SUMO tag was cleaved using 0.05 mg/mL Ulp1 protease. The biotinylated SH2 domain was then collected in a flowthrough after running the cleavage reaction over a HisTrap HP column. Finally, the biotinylated SH2 domain in the flowthrough was run on a HiLoad 16/600 Superdex 75 pg size exclusion column (Cytiva) in storage buffer (20 mM HEPES, pH 7.5, 150 mM NaCl, 10% glycerol). The purified biotinylated SH2 domains were aliquoted, snap‐frozen in liquid N2, and stored at −80°C.
Measured binding constants (K D) from competition mode fluorescence polarization experiments were obtained using the purified SH2 domains used for the selection and chosen sets of peptides with a phosphorylated tyrosine exactly as described previously (Li et al., [2023]). […] (c‐Src SH2 consensus) was used as the probe, and for the Grb2 SH2 domain, the fluorescently labeled peptide FITC‐Ahx‐FDDPS(pY)VNVQN (Ahx = 6‐aminohexanoic acid) from the Y177 phospho‐tyrosine site of BCR. Before performing the competition mode fluorescence polarization measurement, the K D of the probes for the respective SH2 domains was first measured in a direct mode of fluorescence polarization.
Broadly, the Kd is the free concentration of one partner at which half of the binding sites on the other are occupied at equilibrium, for simple one-to-one binding. Compound `CC[C@H](C)[C@H](NC(=O)[C@@H]1CCCN1C(=O)[C@H](CCC(N)=O)NC(C)=O)C(=O)N[C@@H](Cc1ccccc1)C(=O)N[C@@H](CCC(=O)O)C(=O)NCC(=O)N[C@@H](Cc1ccc(OP(=O)(O)O)cc1)C(=O)N[C@@H](C)C(=O)N[C@@H](CC(C)C)C(=O)N1CCC[C@H]1C(=O)N[C@@H](Cc1c[nH]cn1)C(=O)N[C@@H](C)C(=O)NCC(N)=O` [ACTA1 pY171] (Ac-QPIFEG[pY]ALPHAG-NH2) gave a Kd of 47.3 nM.

For the compound `CC(=O)N[C@@H](CCC(N)=O)C(=O)N[C@@H](CO)C(=O)N[C@@H](CC(C)C)C(=O)N[C@@H](CCC(=O)O)C(=O)N[C@@H](CCCCN)C(=O)N[C@@H](CO)C(=O)N[C@@H](Cc1ccc(OP(=O)(O)O)cc1)C(=O)N[C@@H](CCC(=O)O)C(=O)N[C@@H](CC(C)C)C(=O)N[C@@H](CC(C)C)C(=O)N[C@@H](CC(=O)O)C(=O)NCC(=O)NCC(N)=O` [ACTB pY240 P243L] (Ac-QSLEKS[pY]ELLDGG-NH2), the affinity, expressed as Kd, was 141 nM.

As to `CC[C@H](C)[C@H](NC(=O)CNC(=O)[C@H](CCC(=O)O)NC(=O)[C@@H](NC(=O)[C@H](CCC(N)=O)NC(C)=O)C(C)C)C(=O)N[C@@H](CO)C(=O)N[C@@H](Cc1ccc(OP(=O)(O)O)cc1)C(=O)N[C@@H](CC(=O)O)C(=O)N[C@@H](Cc1ccccc1)C(=O)N[C@H](C(=O)N1CCC[C@H]1C(=O)N[C@H](C(=O)NCC(N)=O)[C@@H](C)O)[C@@H](C)CC` [CBS pY308 G307S] (Ac-QVEGIS[pY]DFIPTG-NH2), binding was put at a Kd of 185 nM.

Compound `CC(=O)N[C@@H](CCC(N)=O)C(=O)N[C@@H](CC(C)C)C(=O)N[C@@H](Cc1c[nH]cn1)C(=O)N[C@H](C(=O)N[C@@H](Cc1c[nH]cn1)C(=O)N1CCC[C@H]1C(=O)N[C@@H](Cc1ccc(OP(=O)(O)O)cc1)C(=O)N[C@@H](CCC(=O)O)C(=O)N[C@@H](CCCCN)C(=O)N[C@H](C(=O)N[C@@H](CCC(=O)O)C(=O)N[C@@H](CC(=O)O)C(=O)NCC(N)=O)C(C)C)C(C)C` [Syn-F-1] (Ac-QLHVHP[pY]EKVEDG-NH2) returned a Kd of 30.2 nM.

Compound `CSCC[C@H](NC(=O)[C@H](CCC(N)=O)NC(C)=O)C(=O)N[C@@H](CCC(=O)O)C(=O)N[C@@H](CCCCN)C(=O)N[C@@H](Cc1c[nH]cn1)C(=O)N[C@H](C(=O)N[C@@H](Cc1ccc(OP(=O)(O)O)cc1)C(=O)N[C@@H](CCC(=O)O)C(=O)N[C@@H](CO)C(=O)N[C@H](C(=O)N[C@H](C(=O)N[C@@H](CCC(N)=O)C(=O)NCC(N)=O)[C@@H](C)O)C(C)C)C(C)C` [Syn-F-2] (Ac-QMEKHV[pY]ESVTQG-NH2) registered a Kd of 18.3 nM.

Still in this assay, the particulars now being: Table S3, unpaired validation; competition fluorescence polarization; probe FITC-Ahx-GDG-pY-EEISPLLL-NH2 0.4 nM; [SH2] 4.12 nM; mean; read-out: Kd mean.
Turning to `CC(=O)N[C@@H](CCC(N)=O)C(=O)N[C@@H](CO)C(=O)N[C@@H](CC(C)C)C(=O)N[C@@H](CCC(=O)O)C(=O)N[C@@H](CCCCN)C(=O)N[C@@H](CO)C(=O)N[C@@H](Cc1ccc(OP(=O)(O)O)cc1)C(=O)N[C@@H](CCC(=O)O)C(=O)N[C@@H](CC(C)C)C(=O)N1CCC[C@H]1C(=O)N[C@@H](CC(=O)O)C(=O)NCC(=O)NCC(N)=O` [ACTB pY240] (Ac-QSLEKS[pY]ELPDGG-NH2), the dissociation constant (Kd) was found to be 159 nM.

For `CC[C@H](C)[C@H](NC(=O)CNC(=O)[C@H](CCC(=O)O)NC(=O)[C@@H](NC(=O)[C@H](CCC(N)=O)NC(C)=O)C(C)C)C(=O)NCC(=O)N[C@@H](Cc1ccc(OP(=O)(O)O)cc1)C(=O)N[C@@H](CC(=O)O)C(=O)N[C@@H](Cc1ccccc1)C(=O)N[C@H](C(=O)N1CCC[C@H]1C(=O)N[C@H](C(=O)NCC(N)=O)[C@@H](C)O)[C@@H](C)CC` [CBS pY308] (Ac-QVEGIG[pY]DFIPTG-NH2), the dissociation constant Kd was 126 nM.

For the compound `CC[C@H](C)[C@H](NC(=O)[C@H](CC(C)C)NC(=O)[C@H](CO)NC(=O)[C@H](Cc1ccc(OP(=O)(O)O)cc1)NC(=O)[C@H](CCCNC(=N)N)NC(=O)[C@H](CCCNC(=N)N)NC(=O)[C@H](CCC(N)=O)NC(=O)[C@H](CC(=O)O)NC(=O)[C@H](CO)NC(=O)[C@H](CCC(N)=O)NC(C)=O)C(=O)N[C@@H](CC(=O)O)C(=O)N1CCC[C@H]1C(=O)NCC(N)=O` [CLIP2 pY972 R977P] (Ac-QSDQRR[pY]SLIDPG-NH2), the Kd stood at 27 nM.

For the compound `CC[C@H](C)[C@H](NC(=O)[C@H](CC(C)C)NC(=O)[C@H](CO)NC(=O)[C@H](Cc1ccc(OP(=O)(O)O)cc1)NC(=O)[C@H](CCCNC(=N)N)NC(=O)[C@H](CCCNC(=N)N)NC(=O)[C@H](CCC(N)=O)NC(=O)[C@H](CC(=O)O)NC(=O)[C@H](CO)NC(=O)[C@H](CCC(N)=O)NC(C)=O)C(=O)N[C@@H](CC(=O)O)C(=O)N[C@@H](CCCNC(=N)N)C(=O)NCC(N)=O` [CLIP2 pY972] (Ac-QSDQRR[pY]SLIDRG-NH2), the Kd was determined as 78.5 nM.
